Laboratory results taken from patent US9822128B1, “Substituted spirooxindoles” (KING SAUD UNIVERSITY, priority 2017, dated 2017).
Like-named read-outs stand apart in the source and are kept apart here.

Legend:
Format in all cases: cell-based, human
HCT-116 = experiment: MTT cytotoxicity assay, colon cancer cells; details: for IC50: Homo sapiens, HCT-116, MTT, 48 hrs incubation
Protocol: (§1) The cytotoxic activity of the compounds was tested against different mammalian cancer cells, prostate carcinoma cells (PC-3), hepatocellular carcinoma (HepG2) and colon cancer cells (HCT-116) and against African green monkey kidney cell line (Vero-B). The cell lines were obtained from American Type Culture Collection (ATCC). The cells were cultivated at 37° C. and 10% CO2 in DMEM (Lonza, 12-604F) medium supplemented with 10% fetal bovine serum (FBS, Lonza, Cat. No. 14-801E), 100 IU/ml penicillin and 100 μg/ml streptomycin (Lonza, 17-602E). Cisplatin (cis-diamineplatinum (II) dichloride) was used as a positive control and was obtained from Sigma then dissolved in 0.9% saline then stored as 8 mM stock solution at −20° C. The synthesized compounds were solubilized in DMSO and stored at −20° C. 0.5% crystal violet was prepared in Methanol and was used to stain the viable cells (Feoktistova, Geserick et al. 2016). Crystal violet binds to proteins and DNA in the adherent and viable cells so the stain is an indicator for the viability of the treated cells. The viability of the cells were quantified by using MTT reagent (3-(4,5-dimethylthiazol-2-yl)-2,5-diphenyl tetrazolium bromide), which measure the activity of mitochondrial dehydrogenase in the viable cells (Slater, Sawyer et al. 1963, Mosmann 1983).
(§2) Cytotoxicity was further assayed as follows. The cells were seeded in 96-well plate as 5*10^4 cells/mL (100 μL/well). A serial dilutions of tested compounds or cisplatin (100, 30, 10, 3.3, 1.1 or 0.37 μM) was added after overnight incubation of the cells at 37° C. and 5% CO2. DMSO was used as a control (0.1%). The cells were incubated for 48 hrs. After that, 15 μl of MTT (5 mg/mL PBS) was added to each well and incubated for another 4 hours. The formazan crystals were solubilized by 100 μL acidified SDS solution (10% SDS/0.01 M HCl). The absorbance was measured after 14 hours of incubation at 37° C. and 5% CO2 at 570 nm by Biotech plate reader. Each experiment was repeated three times and standard deviation was calculated (±). IC50% was calculated as the concentration that cause 50% inhibition for cell growth. The growth of the cells were monitored and the images were acquired by Gx microscopes (GXMGXD202 Inverted Microscope) (10× Eyepiece) after staining with crystal violet.

HepG2 = experiment: MTT cytotoxicity assay, hepatocellular carcinoma cells; details: for IC50: Homo sapiens, HepG2, MTT, 48 hrs incubation
Protocol: as §1, §2

PC-3 = experiment: MTT cytotoxicity assay, prostate carcinoma cells; details: for IC50: Homo sapiens, PC-3, MTT, 48 hrs incubation
Protocol: as §1, §2

HCT-116 cells [1] = experiment: Colony forming assay; details: HCT-116, 2 μM (method) / 1 μM (result sentence), 10 days, vs DMSO control
Protocol: HCT-116 cells were seeded in 35 mm cell culture dish (500 cells/ml, 2 ml/dish). After overnight incubation at 37° C. and 5% CO2, the medium was replaced with fresh medium containing either DMSO or 2 μM of 4d. The dishes were returned into the incubator and watched for the formation of single colonies. After 10 days, the experiment was stopped by washing the colonies by ice-cold 1×-PBS and fixed with ice-cold methanol. The colonies were left to air dry, then stained with 0.5% crystal violet. The excess stain was washed off by tap water. The colonies were counted by Gx microscopes (GXMGXD202 Inverted Microscope) (10× Eyepiece) and images were processed by ImageJ 1.47v. The effect of compound 4d on the colony formation of colon cancer cells was evaluated by incubating the cells with 1 μM. […] This confirms the ability of compound 4d to enhance tumor suppressor activities.

HCT-116 cells [2] = experiment: Induction of apoptosis (annexin-V / 7-AAD flow cytometry)
Protocol: The HCT-116 cells were seeded at 5*10^4 cells/mL density in a 6-well plate. The cells were treated with 2 μM 4d for 48 hrs, and the cells were collected after trypsin enzyme treatment and washed two times with ice-cold 1×PBS. The cells were incubated for 2 hours at 4° C. in PBS, then centrifuged and re-suspended in 1× binding buffer. Then 5 μL PE annexin-V and 5 μL 7-amino-actinomycin D (7-AAD) were added to 100 μL of cell suspension and incubated for 15 min at RT in the dark, and then 400 μL of 1× binding buffer was added to the cell suspension and analyzed within 1 hour by BD Accuri™ C6 Plus flow cytometer. The following controls were used to set up the machine: cells unstained with PE annexin V and 7-AAD, cells stained with PE annexin V only, cells stained with 7-AAD only. The level of apoptotic cells, whether in early (+ve annexin-V and −ve PI) or late stage (+ve Annexin-V and +ve PI), was determined. […] The results are shown in FIG. 5A (untreated cells) and FIG. 5B (treated with just 1 μM of compound 4d for 24 hours).

[3] = test system: p53 in HCT-116 (wt p53) cells; experiment: p53 activation, p53 protein level by flow cytometry; details: for shift in fluorescence (p53 antibody): 48 hours, untreated 23%
Protocol: The determination of p53 protein level by flow cytometry was applied because it measures the level in a single cell and determines the heterogeneity of expression within a population of cells. HCT-116 (wt p53) cells were seeded at 5*10^4 cells/mL density in a 6-well plate (2 ml/well). The cells were treated with 1 or 2 μM of compound 4d for 48 hrs, and the cells were collected after trypsin enzyme treatment and washed two times with ice-cold 1×PBS. The cells were fixed with 4% paraformaldehyde for fixation and permeabilization, then washed one time with 1× ice-cold PBS and one time with PBS containing 2% FBS. Then an aliquot of the cells was incubated with an anti-p53 antibody for one hour, and then washed two times with PBS. After that, the same cells were stained with PI (propidium iodide). […] In order to confirm the effect of compound 4d on the activation of p53, we incubated the colon cancer cells with 2 μM of compound 4d, and after 24 hours, the cells were stained with the antibody against p53. […] See FIGS. 6B (1 μM treatment with compound 4d for 48 hours; 52.7% shift in fluorescence) and 6C (2 μM treatment with compound 4d for 48 hours; 60.1% shift in fluorescence) compared to FIG. 6A (untreated cancer cells; 23% shift in fluorescence).

In the case of `O=C(/C=C/c1ccc(Cl)cc1Cl)[C@H]1[C@H](c2ccc(Cl)cc2Cl)[C@H]2CSCN2[C@]12C(=O)Nc1ccccc12` [Compound 4d, (3R,6′S,7′R,7a′S)-7′-(2,4-dichlorophenyl)-6′-((E)-3-(2,4-dichlorophenyl)acryloyl)-1′,6′,7′,7a′-tetrahydro-3′H-spiro[indoline-3,5′-pyrrolo[1,2-c]thiazol]-2-one], the IC50 (HCT-116; read-out: HCT-116 (IC50% μM)) is reported as 1.4 ± 0.6 µM, the IC50 (HCT-116; read-out: HCT-116 (IC50% μg/ml)) is reported as 0.8 µg/mL and the “selectivity index to the cancer cells” value (HCT-116; broad spectrum, cancer cells) is reported as “greater than 2”. The IC50 (HepG2; read-out: HepG2 (IC50% μM)) was 0.85 ± 0.2 µM, the IC50 (HepG2; read-out: HepG2 (IC50% μg/ml)) was 0.5 µg/mL and the SI (HepG2; Selectivity Index from IC50 normal (VERO-B) and IC50 cancer (HepG2)) was 5.882. The IC50 (PC-3; read-out: PC-3 (IC50% μM)) was 1.8 ± 0.3 µM, the IC50 (PC-3; read-out: PC-3 (IC50% μg/ml)) was 1.1 µg/mL and the SI (PC-3; Selectivity Index from IC50 normal (VERO-B) and IC50 cancer (PC-3)) was 2.778. For the same compound, the formation of colonies (HCT-116 cells [1]) was “able to inhibit the formation of colonies”, the induction of apoptosis (HCT-116 cells [2]; HCT-116, 1 μM, 24 hours) was “could induce the apoptosis” and the apoptotic cells (HCT-116 cells [2]; HCT-116, 2 μM, 48 hours) was “greatly increased the apoptotic cells”. The “shift in fluorescence (p53 antibody)” value ([3]; HCT-116, 1 μM) was 52.7%, the “shift in fluorescence (p53 antibody)” value ([3]; HCT-116, 2 μM) was 60.1% and the “cell population positive for p53” value ([3]; colon cancer cells, 2 μM, 24 hours) was “significant increase”.
